This is an account of results in ChEMBL document CHEMBL4033730, “Thiosemicarbazones as inhibitors of tyrosinase enzyme” (Bioorg Med Chem Lett, 2017).

The source made the active and inactive calls. The calls are words filed in the database; no cut-off is given here.

Series [1] concerns the target T1, Mushroom tyrosinase (Agaricus bisporus) (UniProt O42713+Q00024+C7FF04+C7FF05). Put plainly: Inhibition of Agaricus bisporus tyrosinase assessed as reduction in diphenolase activity by measuring L-DOPA oxidation at 1.6 mM after 0 to 70 mins by UV-visible specroscopy.
For series [2], the target named is T2, Mushroom tyrosinase (Agaricus bisporus, UniProt O42713+Q00024+C7FF04+C7FF05). Put plainly: Inhibition of Agaricus bisporus tyrosinase assessed as reduction in diphenolase activity by measuring L-DOPA oxidation after 30 mins.
Series [3] deals with T2, Mushroom tyrosinase. Kind of series: […] inhibition of Agaricus bisporus tyrosinase assessed as reduction in diphenolase activity by measuring L-DOPA oxidation at 1.6 mM after 30 mins by Lineweaver-Burk plot.
The target of series [4] is T2, Mushroom tyrosinase. Kind of series: Competitive inhibition of Agaricus bisporus tyrosinase assessed as reduction in diphenolase activity by measuring L-DOPA oxidation at 1.6 mM after 30 mins by Lineweaver-Burk plot.
The target of series [5] is T1, Mushroom tyrosinase (Agaricus bisporus). Put plainly: Inhibition of Agaricus bisporus tyrosinase assessed as reduction in diphenolase activity by measuring L-DOPA oxidation at 2.22 mM after 30 mins.
The target is the same in series [6]. Kind of series: Inhibition of Agaricus bisporus tyrosinase assessed as reduction in diphenolase activity by measuring L-DOPA oxidation at 2.67 mM after 30 mins.
The target is the same in series [7]. Kind of series: Inhibition of Agaricus bisporus tyrosinase assessed as reduction in diphenolase activity by measuring L-DOPA oxidation at 0.89 mM after 30 mins.
Series [8] has the same target. Kind of series: Inhibition of Agaricus bisporus tyrosinase assessed as reduction in diphenolase activity by measuring L-DOPA oxidation at 1.78 mM after 30 mins.
The target is the same in series [9]. Put plainly: Inhibition of Agaricus bisporus tyrosinase assessed as reduction in diphenolase activity by measuring L-DOPA oxidation at 1.33 mM after 30 mins.
For series [10] the target is unchanged. Put plainly: Inhibition of Agaricus bisporus tyrosinase assessed as reduction in diphenolase activity by measuring L-DOPA oxidation at 0.44 mM after 30 mins.
Series [11] has the same target. Put plainly: Inhibition of Agaricus bisporus tyrosinase assessed as reduction in diphenolase activity by measuring L-DOPA oxidation at 0.29 mM after 30 mins.
The target is the same in series [12]. Kind of series: Competitive inhibition of Agaricus bisporus tyrosinase assessed as reduction in diphenolase activity by measuring L-DOPA oxidation at 1.6 mM after 30 mins UV-visible specroscopy.
Series [13] has the same target. Kind of series: Inhibition of Agaricus bisporus tyrosinase assessed as reduction in diphenolase activity by measuring L-DOPA oxidation at 0.15 mM after 30 mins.
The subject of series [14] is NC(=S)N/N=C/c1ccccc1. Kind of series: (§1) Inhibition of Agaricus bisporus tyrosinase assessed as reduction in diphenolase activity by measuring Vmax for L-DOPA oxidation at 1.6 mM after 30 mins by Lineweaver-Burk plot.
The test system of series [15] is COc1cc(/C=N/NC(N)=S)ccc1O. The description is as §1.
For series [16], the system named is CCOc1ccc(/C=N/NC(N)=S)cc1. Described as §1.
Series [17] deals with NC(=S)N/N=C/c1ccc(Br)cc1. The series is described as §1.
Series [18] deals with NC(=S)N/N=C/c1ccc(Cl)cc1. Described as §1.
Series [19] deals with COc1ccc(/C=N/NC(N)=S)cc1. The description is as §1.
The subject of series [20] is NC(=S)N/N=C/c1ccc(O)cc1. The description is as §1.
For series [21], the system named is NC(=S)N/N=C/c1ccc(NC(=S)N/N=C/c2ccccn2)cc1. Described as §1.
The subject of series [22] is NC(=S)N/N=C/c1ccccc1. Put plainly: (§2) Inhibition of Agaricus bisporus tyrosinase assessed as reduction in diphenolase activity by measuring apparent Km for L-DOPA oxidation at 1.6 mM after 30 mins by Lineweaver-Burk plot.
The subject of series [23] is COc1cc(/C=N/NC(N)=S)ccc1O. The description is as §2.
Series [24] deals with CCOc1ccc(/C=N/NC(N)=S)cc1. The description is as §2.
For series [25], the system named is NC(=S)N/N=C/c1ccc(Br)cc1. Described as §2.
The subject of series [26] is NC(=S)N/N=C/c1ccc(Cl)cc1. The description is as §2.
Series [27] concerns COc1ccc(/C=N/NC(N)=S)cc1. Described as §2.
The test system of series [28] is NC(=S)N/N=C/c1ccc(O)cc1. The series is described as §2.
For series [29], the system named is NC(=S)N/N=C/c1ccc(NC(=S)N/N=C/c2ccccn2)cc1. The description is as §2.
Series [30] has as its target T2, Mushroom tyrosinase. Kind of series: Uncompetitive inhibition of Agaricus bisporus tyrosinase assessed as reduction in diphenolase activity by measuring L-DOPA oxidation at 1.6 mM after 30 mins by Lineweaver-Burk plot.

Sequence of Mushroom tyrosinase (Agaricus bisporus) (from UniProt O42713+Q00024+C7FF04+C7FF05) (C7FF05 whole entry, looked up): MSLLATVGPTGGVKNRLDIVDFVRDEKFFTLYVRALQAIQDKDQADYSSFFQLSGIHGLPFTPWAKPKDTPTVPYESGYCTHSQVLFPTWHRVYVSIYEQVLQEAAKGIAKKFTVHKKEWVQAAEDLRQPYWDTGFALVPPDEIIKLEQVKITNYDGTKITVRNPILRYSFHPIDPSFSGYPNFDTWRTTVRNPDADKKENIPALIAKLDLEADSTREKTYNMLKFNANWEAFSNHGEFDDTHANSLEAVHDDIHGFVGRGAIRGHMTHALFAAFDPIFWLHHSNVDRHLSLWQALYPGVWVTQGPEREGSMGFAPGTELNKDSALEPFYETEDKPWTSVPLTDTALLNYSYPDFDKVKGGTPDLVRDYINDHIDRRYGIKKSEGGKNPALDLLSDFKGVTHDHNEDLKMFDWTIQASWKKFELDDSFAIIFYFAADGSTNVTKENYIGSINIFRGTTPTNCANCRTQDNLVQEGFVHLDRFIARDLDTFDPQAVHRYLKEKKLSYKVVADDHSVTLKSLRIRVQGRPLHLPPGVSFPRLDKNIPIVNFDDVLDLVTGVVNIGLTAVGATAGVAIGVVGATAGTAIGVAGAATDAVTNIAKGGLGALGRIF
Sequence of Mushroom tyrosinase (Agaricus bisporus) (from UniProt O42713+Q00024+C7FF04+C7FF05) (C7FF04 whole entry, looked up): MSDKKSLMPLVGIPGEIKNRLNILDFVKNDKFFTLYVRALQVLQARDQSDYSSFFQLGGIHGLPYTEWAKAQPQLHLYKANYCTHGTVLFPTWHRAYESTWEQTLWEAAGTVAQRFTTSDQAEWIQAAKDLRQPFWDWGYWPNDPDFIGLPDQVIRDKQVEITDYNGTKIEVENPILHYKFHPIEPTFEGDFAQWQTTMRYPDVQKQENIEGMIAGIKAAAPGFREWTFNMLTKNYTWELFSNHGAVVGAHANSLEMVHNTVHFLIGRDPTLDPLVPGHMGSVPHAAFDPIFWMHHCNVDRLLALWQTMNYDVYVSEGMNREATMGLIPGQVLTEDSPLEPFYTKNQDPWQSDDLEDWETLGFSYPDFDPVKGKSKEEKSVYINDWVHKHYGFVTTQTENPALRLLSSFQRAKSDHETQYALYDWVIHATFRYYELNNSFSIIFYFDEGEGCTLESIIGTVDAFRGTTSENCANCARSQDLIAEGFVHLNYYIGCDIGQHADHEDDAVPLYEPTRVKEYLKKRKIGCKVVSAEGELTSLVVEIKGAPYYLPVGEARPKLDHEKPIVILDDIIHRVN
Sequence of Mushroom tyrosinase (Agaricus bisporus) (from UniProt O42713+Q00024+C7FF04+C7FF05) (Q00024 whole entry, looked up): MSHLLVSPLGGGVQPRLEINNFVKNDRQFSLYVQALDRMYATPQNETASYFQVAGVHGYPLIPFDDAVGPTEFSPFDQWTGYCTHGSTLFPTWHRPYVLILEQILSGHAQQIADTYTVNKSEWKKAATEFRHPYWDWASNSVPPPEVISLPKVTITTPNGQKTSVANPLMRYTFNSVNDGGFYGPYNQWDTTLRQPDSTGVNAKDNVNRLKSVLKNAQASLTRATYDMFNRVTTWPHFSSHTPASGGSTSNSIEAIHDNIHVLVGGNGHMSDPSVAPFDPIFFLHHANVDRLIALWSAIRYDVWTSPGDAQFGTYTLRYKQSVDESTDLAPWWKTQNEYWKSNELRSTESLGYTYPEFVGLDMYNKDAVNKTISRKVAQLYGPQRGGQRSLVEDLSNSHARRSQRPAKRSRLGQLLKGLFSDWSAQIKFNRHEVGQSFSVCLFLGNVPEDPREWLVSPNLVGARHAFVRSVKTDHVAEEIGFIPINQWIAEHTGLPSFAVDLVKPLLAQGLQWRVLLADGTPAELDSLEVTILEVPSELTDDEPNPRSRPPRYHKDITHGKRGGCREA
Sequence of Mushroom tyrosinase (Agaricus bisporus) (from UniProt O42713+Q00024+C7FF04+C7FF05) (O42713 whole entry, looked up): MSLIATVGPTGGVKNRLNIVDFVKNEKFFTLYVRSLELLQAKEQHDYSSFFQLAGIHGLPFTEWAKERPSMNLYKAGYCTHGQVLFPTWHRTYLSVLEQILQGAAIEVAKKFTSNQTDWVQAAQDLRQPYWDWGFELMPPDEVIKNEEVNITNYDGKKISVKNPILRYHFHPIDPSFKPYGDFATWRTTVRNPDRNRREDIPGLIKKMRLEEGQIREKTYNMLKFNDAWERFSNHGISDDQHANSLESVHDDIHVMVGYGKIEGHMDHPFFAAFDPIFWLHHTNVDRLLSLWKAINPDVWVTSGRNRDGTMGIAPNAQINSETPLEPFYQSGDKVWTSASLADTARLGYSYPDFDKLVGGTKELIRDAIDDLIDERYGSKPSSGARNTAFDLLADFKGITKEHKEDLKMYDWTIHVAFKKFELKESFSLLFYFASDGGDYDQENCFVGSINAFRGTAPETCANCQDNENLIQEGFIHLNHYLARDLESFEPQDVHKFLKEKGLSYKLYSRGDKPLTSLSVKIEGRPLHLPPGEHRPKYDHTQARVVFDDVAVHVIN

By inhibition is commonly meant the change of the read-out against control, counted positive when it falls. As usually defined, the IC50 is the concentration needed to halve the response being measured. A word on the Ki: it is the dissociation constant of the complex between target and ligand, obtained from inhibition or displacement. For `NC(=S)N/N=C/c1ccccc1` [PHENYLTHIOSEMICARBAZONE], the inhibition result in series [1] is “Active”. The IC50 on Mushroom tyrosinase [2] came to 820 µM. Besides, on Mushroom tyrosinase [3], the Ki amounted to 4500 µM.
With `COc1ccc(/C=N/NC(N)=S)cc1`, the inhibition result in [1] was “Active”. The concentration for half-maximal inhibition (IC50) at Mushroom tyrosinase [2] amounted to 440 µM. Further, at Mushroom tyrosinase [4], the Ki was 50 µM.
The matching figures for `NC(=S)N/N=C/c1ccc(NC(=S)N/N=C/c2ccccn2)cc1`: “Active”, 1190 µM and 200 µM.
Take `NC(=S)N/N=C/c1ccc(Cl)cc1`: at Mushroom tyrosinase [2], the IC50 was found to be 840 µM. Moreover, the Ki at Mushroom tyrosinase [4] was determined as 1300 µM.
With `COc1cc(/C=N/NC(N)=S)ccc1O`, the inhibition in [5] was 94.6%; in series [6], 93.8%; in [7] it was 79.2%; in series [8], 92.8%; in series [9] it was 89.2%; in series [10], 59.3%. Further, the inhibition in series [11] was determined as 45.7%; in [13], 24%. In addition, the inhibition entry in series [1] and in series [12] was “Active” each time. Further, the IC50 at Mushroom tyrosinase [2] came to 350 µM. Besides, the Ki at Mushroom tyrosinase [4] was 60 µM.
One may read the Vmax as the top rate of the reaction or transport when substrate is in excess. The Km is the substrate concentration at which the rate is half of its maximum. For the molecule “Mushroom tyrosinase (Agaricus bisporus) (from UniProt O42713+Q00024+C7FF04+C7FF05)”, the Vmax with NC(=S)N/N=C/c1ccccc1 [14] worked out at 18.9 mM/min; in series [15], 48.1 mM/min; in series [16], 38.4 mM/min; in the series with NC(=S)N/N=C/c1ccc(Br)cc1 [17], 16.6 mM/min; with NC(=S)N/N=C/c1ccc(Cl)cc1 [18], 39.7 mM/min; in the series with COc1ccc(/C=N/NC(N)=S)cc1 [19], 34.8 mM/min. Also, the values for the Vmax (in the series on NC(=S)N/N=C/c1ccc(O)cc1 [20]; in series [21]) were 9.5 mM/min and 27.1 mM/min, respectively. Besides, the Michaelis constant (Km) in the series with NC(=S)N/N=C/c1ccccc1 [22] turned out to be 0.8 mM; in [23] it was 22.4 mM; in series [24] it was 21.7 mM; with NC(=S)N/N=C/c1ccc(Br)cc1 [25] it was 0.5 mM; with NC(=S)N/N=C/c1ccc(Cl)cc1 [26], 1.9 mM; with COc1ccc(/C=N/NC(N)=S)cc1 [27], 26.3 mM. Further, the Km was determined as 0.7 mM with NC(=S)N/N=C/c1ccc(O)cc1 [28] and 8.3 mM in series [29].
For the molecule `NC(=S)N/N=C/c1ccc(Br)cc1`, the Ki on Mushroom tyrosinase [30] came to 600 µM. Moreover, in [1], the inhibition result was “Active”. In addition, the IC50 at Mushroom tyrosinase [2] was 1420 µM.
On to `CCOc1ccc(/C=N/NC(N)=S)cc1`, for which, in series [1], the inhibition result was “Active”. The IC50 on Mushroom tyrosinase [2] was determined as 360 µM. Also, on Mushroom tyrosinase [4], the Ki worked out at 60 µM.
As to `NC(=S)N/N=C/c1ccc(O)cc1`, the inhibition result in series [1] was “Active”.
